The record followed here is ChEMBL document CHEMBL3102787, “Linear propargylic alcohol functionality attached to the indazole-7-carboxamide as a JAK1-specific linear probe group” (Bioorg Med Chem, 2014).

SMILES strings stand for the structures.

For experiment [1], the target named is Tyrosine-protein kinase JAK2 (Homo sapiens) (UniProt O60674). Particulars: at 10 µM.
Description: Inhibition of JAK2 (unknown origin) at 10 uM
Experiment [2] concerns the target T1, Tyrosine-protein kinase JAK3 (Homo sapiens) (UniProt P52333).
T1 sequence (whole entry): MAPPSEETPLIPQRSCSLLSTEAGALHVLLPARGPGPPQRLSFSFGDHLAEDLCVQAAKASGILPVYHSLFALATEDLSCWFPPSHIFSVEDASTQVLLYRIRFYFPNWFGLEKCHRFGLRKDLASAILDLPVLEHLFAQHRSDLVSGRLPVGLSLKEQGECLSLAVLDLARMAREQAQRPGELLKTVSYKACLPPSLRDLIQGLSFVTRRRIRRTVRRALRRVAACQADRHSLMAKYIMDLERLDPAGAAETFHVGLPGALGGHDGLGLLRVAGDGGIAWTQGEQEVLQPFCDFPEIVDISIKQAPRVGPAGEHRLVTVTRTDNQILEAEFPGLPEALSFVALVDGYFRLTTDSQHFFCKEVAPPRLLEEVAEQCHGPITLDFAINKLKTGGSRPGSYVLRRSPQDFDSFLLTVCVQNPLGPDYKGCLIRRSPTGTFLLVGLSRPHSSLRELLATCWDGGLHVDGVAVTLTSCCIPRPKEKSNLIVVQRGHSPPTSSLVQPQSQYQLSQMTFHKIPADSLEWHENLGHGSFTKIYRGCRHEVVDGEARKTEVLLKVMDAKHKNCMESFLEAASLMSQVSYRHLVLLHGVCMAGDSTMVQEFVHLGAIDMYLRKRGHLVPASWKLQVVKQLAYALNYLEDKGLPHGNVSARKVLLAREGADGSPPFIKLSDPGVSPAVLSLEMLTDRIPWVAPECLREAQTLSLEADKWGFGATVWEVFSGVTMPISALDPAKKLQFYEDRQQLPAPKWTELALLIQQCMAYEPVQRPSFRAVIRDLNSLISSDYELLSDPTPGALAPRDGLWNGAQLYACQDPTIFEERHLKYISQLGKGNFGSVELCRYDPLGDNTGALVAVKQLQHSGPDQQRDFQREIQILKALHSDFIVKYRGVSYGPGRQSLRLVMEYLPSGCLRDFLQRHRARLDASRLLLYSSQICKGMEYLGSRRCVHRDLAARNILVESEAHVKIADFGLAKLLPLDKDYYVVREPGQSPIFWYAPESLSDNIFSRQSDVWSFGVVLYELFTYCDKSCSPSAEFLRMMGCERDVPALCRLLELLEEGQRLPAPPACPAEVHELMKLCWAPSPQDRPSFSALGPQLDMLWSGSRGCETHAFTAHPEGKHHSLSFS
As to conditions: at 10 µM.
Description: Inhibition of JAK3 (unknown origin) at 10 uM

Sequence of Tyrosine-protein kinase JAK2 (Homo sapiens) (O60674 whole entry): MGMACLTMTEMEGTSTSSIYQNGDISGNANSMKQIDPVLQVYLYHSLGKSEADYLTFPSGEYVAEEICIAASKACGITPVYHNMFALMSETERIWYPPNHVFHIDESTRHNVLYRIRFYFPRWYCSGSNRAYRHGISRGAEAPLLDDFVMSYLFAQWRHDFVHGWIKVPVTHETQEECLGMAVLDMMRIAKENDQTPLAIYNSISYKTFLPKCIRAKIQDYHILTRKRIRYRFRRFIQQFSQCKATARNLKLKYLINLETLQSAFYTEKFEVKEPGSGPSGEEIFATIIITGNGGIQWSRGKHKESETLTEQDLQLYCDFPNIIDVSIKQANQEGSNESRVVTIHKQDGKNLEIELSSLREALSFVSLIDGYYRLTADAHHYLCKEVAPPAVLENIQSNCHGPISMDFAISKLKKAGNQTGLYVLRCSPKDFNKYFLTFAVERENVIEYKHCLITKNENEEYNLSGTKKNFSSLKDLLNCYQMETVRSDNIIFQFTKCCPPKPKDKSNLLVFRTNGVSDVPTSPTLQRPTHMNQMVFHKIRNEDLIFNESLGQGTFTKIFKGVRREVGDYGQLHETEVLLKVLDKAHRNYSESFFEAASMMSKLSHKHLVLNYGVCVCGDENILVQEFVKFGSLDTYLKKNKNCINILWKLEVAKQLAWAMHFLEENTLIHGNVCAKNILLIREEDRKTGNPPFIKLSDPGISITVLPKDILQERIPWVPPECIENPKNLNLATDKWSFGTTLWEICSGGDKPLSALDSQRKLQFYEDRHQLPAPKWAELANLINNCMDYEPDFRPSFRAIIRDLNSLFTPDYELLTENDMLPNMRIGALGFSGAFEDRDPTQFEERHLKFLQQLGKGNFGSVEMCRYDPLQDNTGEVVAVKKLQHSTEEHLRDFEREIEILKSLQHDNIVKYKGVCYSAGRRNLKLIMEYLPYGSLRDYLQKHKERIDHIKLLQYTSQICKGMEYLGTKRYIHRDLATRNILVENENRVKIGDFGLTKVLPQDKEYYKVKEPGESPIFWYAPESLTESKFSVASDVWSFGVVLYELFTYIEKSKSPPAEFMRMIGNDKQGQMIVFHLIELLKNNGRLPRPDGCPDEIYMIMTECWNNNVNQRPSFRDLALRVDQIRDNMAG

For orientation: inhibition means the drop in the measured response relative to a control, in per cent. Regarding `NC(=O)c1cc(-c2cccc3[nH]ncc23)cc2c(C#CCO)n[nH]c12`, the inhibition in experiment [1] came out at 2.2%; in experiment [2] it was 24.9%.
With `NC(=O)c1cc(-c2cccc3[nH]ncc23)cc2cn[nH]c12`, the values for the inhibition in experiment [1] and in experiment [2] were 1.2% and 22.5%, respectively.
On to `NC(=O)c1cc(-c2cc(N)cc3[nH]ncc23)cc2cn[nH]c12`, for which the inhibition in experiment [1] is 9.1%; in experiment [2] it was 15.7%.
In the case of `NC(=O)c1cc(-c2cc(N)cc3[nH]ncc23)cc2c(C#CCO)n[nH]c12`, the inhibition in experiment [1] was -0.4%; in experiment [2], 38.1%.
In the same order, the values of `NC(=O)c1cc(-c2cccc3[nH]ncc23)cc2c(C#CCCO)n[nH]c12` are 6.7% and 32.3%.
`NC(=O)c1cc(-c2cc(N)cc3[nH]ncc23)cc2c(C#CCCO)n[nH]c12`: the inhibition in experiment [1] is 2.5%; in experiment [2] it was 48.1%.
